Test results: US10583137B2, “Triazole DAGLα inhibitors” (THE SCRIPPS RESEARCH INSTITUTE, priority 2015, dated 2020)
Like-named read-outs stand apart in the source and are kept apart here.

Legend:
[1] = tested on: brain 2-AG and other DAGL-regulated lipids; assay: brain lipid profiles of treated mice by LC-MS; assay type: in vivo, mouse; details: for brain 2-AG levels / brain AA / brain AEA / brain C18:1/C20:4 DAG / brain PGD2 / brain PGE2 / brain SAG: 50 mg/kg i.p., 4 hr post-dosing
Experimental: Brain lipid profiles of mice treated with compounds 14, 17 and control compound 22.
Mice were treated with 50 mg/kg compound (i.p.), followed by lipid profiling using LC-MS at a 4 hr post-dosing. […] This depletion of brain 2-AG in compound 14 and 17-treated mice was dose-dependent (data not shown) and was observed within 2 h after injection. […] The changes in each lipid species were dose-dependent and were absent in compound 22 treated mice (FIGS. 6C, E, G, I, and K).

recombinant human DAGLα = recombinant human DAGLα (Homo sapiens (Human), UniProt Q9Y4D2); assay: SAG substrate assay (in vitro inhibition of 2-AG biosynthesis), membrane lysates from HEK293T cells; assay type: biochemical; details: n=4, read-out: IC50, DAGLα conversion of SAG to 2-AG
Sequence of recombinant human DAGLα (Q9Y4D2 whole entry): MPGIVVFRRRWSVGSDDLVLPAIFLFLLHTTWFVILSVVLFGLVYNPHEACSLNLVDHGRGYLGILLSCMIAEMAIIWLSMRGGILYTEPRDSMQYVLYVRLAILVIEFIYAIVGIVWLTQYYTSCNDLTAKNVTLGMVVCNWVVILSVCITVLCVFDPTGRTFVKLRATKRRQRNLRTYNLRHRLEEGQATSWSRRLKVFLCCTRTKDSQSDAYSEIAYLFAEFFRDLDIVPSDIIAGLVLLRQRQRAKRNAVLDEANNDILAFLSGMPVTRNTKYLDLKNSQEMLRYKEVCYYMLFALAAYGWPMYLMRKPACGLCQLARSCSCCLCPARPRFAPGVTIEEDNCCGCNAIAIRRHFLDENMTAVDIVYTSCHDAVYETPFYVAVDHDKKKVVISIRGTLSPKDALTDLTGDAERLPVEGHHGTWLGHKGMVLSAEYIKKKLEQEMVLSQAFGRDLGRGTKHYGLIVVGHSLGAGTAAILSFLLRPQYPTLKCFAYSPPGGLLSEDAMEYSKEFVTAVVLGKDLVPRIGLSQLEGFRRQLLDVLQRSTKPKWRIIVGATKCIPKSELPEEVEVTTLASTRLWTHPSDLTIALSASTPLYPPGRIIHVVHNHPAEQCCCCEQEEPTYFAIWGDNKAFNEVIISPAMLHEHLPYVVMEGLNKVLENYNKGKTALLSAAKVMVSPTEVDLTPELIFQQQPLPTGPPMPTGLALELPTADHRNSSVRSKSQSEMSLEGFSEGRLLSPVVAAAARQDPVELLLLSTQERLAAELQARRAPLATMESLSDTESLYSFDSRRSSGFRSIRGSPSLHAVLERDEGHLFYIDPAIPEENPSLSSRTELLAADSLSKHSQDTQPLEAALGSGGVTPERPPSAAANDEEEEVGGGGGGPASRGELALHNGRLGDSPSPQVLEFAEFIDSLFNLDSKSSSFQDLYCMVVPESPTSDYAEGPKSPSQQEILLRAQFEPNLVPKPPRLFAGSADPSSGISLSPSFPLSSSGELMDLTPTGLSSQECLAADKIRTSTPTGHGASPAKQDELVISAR
Experimental: DAGL modulators were tested for in vitro inhibition of 2-AG biosynthesis using a 1-stearoyl-2-arachidonoyl-sn-glycerol (SAG) substrate assay in DAGL-transfected HEK293 cells.
The SAG substrate assay, as described in Journal of lipid research 56(4):927-935, was performed using the following assay conditions: 0.2 U/mL glycerol kinase (GK), glycerol-3-phosphate oxidase (GPO) and horseradish peroxidase (HRP), 0.125 mM ATP, 10 μM Amplifu™Red, 5% DMSO in a total volume of 200 μL. The assay additionally contained SAG, a DAGL modulator, and membrane lysates from HEK293T cells expressing recombinant human DAGLα or DAGLβ.
Membranes were prepared from HEK293T cells transiently transfected with DAGLα or DAGLβ plasmids encoding for full length DAGLα or DAGLβ, respectively (Angewandte Chemie 52(46):12081-12085; Journal of Medicinal Chemistry 57(15):6610-6622). Briefly, one day prior to transfection, 10^7 cells were seeded in a 15 cm petri dish. The seeded cells were transfected by the addition of a 3:1 mixture of polyethyleneimine (60 μg) and plasmid DNA (20 μg) in 2 mL serum free medium. The medium was refreshed after 24 hr, and after 72 hr the cells were harvested by suspending them in 20 mL medium. The suspension was centrifuged for 10 min at 1000 rpm, and the supernatant was removed. The cell pellet was stored at −80° C. until use. Cell pellets were thawed on ice and suspended in lysis buffer A (20 mM HEPES, 2 mM DTT, 0.25 M sucrose, 1 mM MgCl2, lx protease inhibitor cocktail (Roche cOmplete EDTA free), 25 U/μL Benzonase). The suspension was homogenized by polytrone (3×7 sec) and incubated for 30 min on ice. The suspension was subjected to ultracentrifugation (100,000×g, 30 min, 4° C., Beckman Coulter, Type Ti70 rotor) to yield the cytosolic fraction in the supernatant and the membrane fraction as a pellet. The pellet was resuspended in lysis buffer B (20 mM HEPES, 2 mM DTT, lx protease inhibitor cocktail (Roche cOmplete EDTA free)) and the protein concentration determined with Quick Start Bradford assay (Biorad). The protein fractions were diluted to a total protein concentration of 1 mg/mL and stored in small aliquots at −80° C. until use.

DAGLα (hDAGLα-FLAG) = DAGLα (hDAGLα-FLAG) (Homo sapiens (Human), UniProt Q9Y4D2); assay: competitive ABPP, membrane proteome of transfected HEK293T cells; assay type: biochemical; details: read-out: DAGLα IC50
Sequence of DAGLα (hDAGLα-FLAG) (Q9Y4D2 whole entry): as above
Summary of the method: (§1)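 HEK293T membrane proteome (1 mg/ml) expressing FLAG-tagged human DAGLα or DAGLβ, treated 30 min at room temperature with compound, then 30 min with HT-01 or FP-Rh probe (1 μM). Bands separated by SDS-PAGE were normalized to DMSO for IC50 by variable-slope fit.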

DAGLβ (hDAGLβ-FLAG) = DAGLβ (hDAGLβ-FLAG) (Homo sapiens (Human), UniProt Q8NCG7); assay: as above; assay type: biochemical; details: read-out: DAGLβ IC50
Sequence of DAGLβ (hDAGLβ-FLAG) (Q8NCG7 whole entry): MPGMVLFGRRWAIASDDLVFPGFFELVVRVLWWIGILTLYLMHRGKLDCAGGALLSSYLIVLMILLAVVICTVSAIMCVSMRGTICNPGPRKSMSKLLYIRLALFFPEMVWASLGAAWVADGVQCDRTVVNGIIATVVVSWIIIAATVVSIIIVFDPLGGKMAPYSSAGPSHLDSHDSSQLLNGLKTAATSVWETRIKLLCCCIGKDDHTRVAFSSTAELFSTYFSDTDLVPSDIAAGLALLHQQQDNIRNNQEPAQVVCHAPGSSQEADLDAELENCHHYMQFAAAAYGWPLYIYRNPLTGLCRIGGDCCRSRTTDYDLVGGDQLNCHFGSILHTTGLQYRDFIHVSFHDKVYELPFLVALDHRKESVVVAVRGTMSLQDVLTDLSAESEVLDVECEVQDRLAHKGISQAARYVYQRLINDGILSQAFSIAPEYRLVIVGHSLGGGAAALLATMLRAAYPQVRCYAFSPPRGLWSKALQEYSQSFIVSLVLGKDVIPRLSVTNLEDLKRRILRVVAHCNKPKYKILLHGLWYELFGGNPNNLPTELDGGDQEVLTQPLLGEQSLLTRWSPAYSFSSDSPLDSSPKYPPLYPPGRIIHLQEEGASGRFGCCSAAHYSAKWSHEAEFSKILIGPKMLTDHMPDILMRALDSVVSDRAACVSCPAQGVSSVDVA
Summary of the method: as §1

DAGLα = DAGLα (Mus musculus (Mouse), UniProt Q6WQJ1); assay: gel-based ABPP of mouse brain proteome, endogenous DAGLs, probe compound 58 and HT-01; assay type: biochemical
Sequence of DAGLα (Q6WQJ1 whole entry): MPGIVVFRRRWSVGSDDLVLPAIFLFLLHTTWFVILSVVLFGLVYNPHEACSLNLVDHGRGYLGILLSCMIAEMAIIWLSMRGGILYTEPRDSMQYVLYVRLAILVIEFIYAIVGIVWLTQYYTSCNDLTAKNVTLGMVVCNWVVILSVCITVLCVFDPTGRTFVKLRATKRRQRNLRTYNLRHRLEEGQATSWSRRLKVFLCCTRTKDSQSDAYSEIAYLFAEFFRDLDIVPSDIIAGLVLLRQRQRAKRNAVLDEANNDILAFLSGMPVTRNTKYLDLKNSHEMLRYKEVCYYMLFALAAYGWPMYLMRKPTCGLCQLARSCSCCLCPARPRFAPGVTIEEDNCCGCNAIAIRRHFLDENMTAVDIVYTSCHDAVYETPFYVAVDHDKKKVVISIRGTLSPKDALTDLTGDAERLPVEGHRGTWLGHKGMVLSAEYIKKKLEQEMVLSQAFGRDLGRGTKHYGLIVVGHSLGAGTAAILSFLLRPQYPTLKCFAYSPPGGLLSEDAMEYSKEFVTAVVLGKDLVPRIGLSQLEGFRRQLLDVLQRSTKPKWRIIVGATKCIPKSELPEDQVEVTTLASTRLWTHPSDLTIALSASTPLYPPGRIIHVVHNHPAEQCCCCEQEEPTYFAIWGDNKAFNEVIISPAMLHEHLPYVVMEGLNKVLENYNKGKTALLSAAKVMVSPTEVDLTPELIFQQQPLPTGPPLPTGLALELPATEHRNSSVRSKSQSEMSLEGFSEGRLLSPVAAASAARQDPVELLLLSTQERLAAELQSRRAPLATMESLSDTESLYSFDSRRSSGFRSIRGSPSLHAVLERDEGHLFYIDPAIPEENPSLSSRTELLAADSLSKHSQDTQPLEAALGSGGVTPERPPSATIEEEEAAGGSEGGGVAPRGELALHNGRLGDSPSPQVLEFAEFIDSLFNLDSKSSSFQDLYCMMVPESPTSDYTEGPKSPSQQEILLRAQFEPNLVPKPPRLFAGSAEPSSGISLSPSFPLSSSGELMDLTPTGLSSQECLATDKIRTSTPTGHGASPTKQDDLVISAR
Experimental: (§2) Compounds 14 and 17 were evaluated for activity and selectivity against endogenous DAGLs and other serine hydrolases in the mouse brain proteome using a ABPP of mouse brain proteome assay as described in Example 16. These experiments were performed using three different activity-based probesprobe compound 58 (targets DAGLα and DAGLβ), HT-01 (targets DAGLα and DAGLβ), and FP-Rh (broad-spectrum serine hydrolase-directed probe fluorophosphonate-rhodamine).
(§3) Data represent average values±SEM; n=3 per group. […] Compounds 14 and 17 had minimal and negligible binding, respectively, to cannabinoid CB1 (CB1R) and CB2 (CB2R) receptors as measured with a radioligand binding assay (IC50 values>1 μM) (data not shown).

DAGLβ = DAGLβ (Mus musculus (Mouse), UniProt Q91WC9); assay: as above; assay type: biochemical
Sequence of DAGLβ (Q91WC9 whole entry): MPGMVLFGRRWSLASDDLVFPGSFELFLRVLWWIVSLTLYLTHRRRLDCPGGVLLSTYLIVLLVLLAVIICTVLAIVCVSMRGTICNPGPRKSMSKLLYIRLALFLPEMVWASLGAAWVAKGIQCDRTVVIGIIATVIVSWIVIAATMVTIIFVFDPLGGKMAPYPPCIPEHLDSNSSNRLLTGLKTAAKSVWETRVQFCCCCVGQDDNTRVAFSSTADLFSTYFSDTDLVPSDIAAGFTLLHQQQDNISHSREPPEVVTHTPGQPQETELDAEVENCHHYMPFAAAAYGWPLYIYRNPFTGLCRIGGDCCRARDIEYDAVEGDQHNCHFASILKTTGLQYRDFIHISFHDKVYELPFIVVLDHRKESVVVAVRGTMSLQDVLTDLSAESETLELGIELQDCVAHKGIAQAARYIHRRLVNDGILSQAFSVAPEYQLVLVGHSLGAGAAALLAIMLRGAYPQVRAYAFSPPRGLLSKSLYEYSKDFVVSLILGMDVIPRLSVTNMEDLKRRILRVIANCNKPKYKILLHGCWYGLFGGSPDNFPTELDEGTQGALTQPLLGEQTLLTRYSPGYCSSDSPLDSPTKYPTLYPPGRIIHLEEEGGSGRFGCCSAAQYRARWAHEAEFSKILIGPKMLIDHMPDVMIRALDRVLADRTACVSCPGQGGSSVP
Experimental: as §2, §3

## CC(C)(C)OC(=O)N1CCN(C(=O)n2cc(-c3ccc(OC(F)(F)F)cc3)nn2)C(Cc2ccccc2)C1 (centres unmarked) [Compound 17, tert-Butyl 3-benzyl-4-(4-(4-(trifluoromethoxy)phenyl)-1H-1,2,3-triazole-1-carbonyl)piperazine-1-carboxylate]
[1]
  time after injection at which depletion of brain 2-AG was observed: ≤ 2 h
  brain 2-AG levels: reduced
  brain AA: reductions
  brain AEA: reductions
  brain C18:1/C20:4 DAG: elevations
  brain PGD2: reductions
  brain PGE2: reductions
  brain SAG: elevations
Recombinant human DAGLα
  IC50: 6 nM
DAGLα (hDAGLα-FLAG)
  IC50: ≤ 400 nM
DAGLβ (hDAGLβ-FLAG)
  IC50: ≤ 400 nM
DAGLα; mouse brain proteome, probes 1 μM, 30 min, read-out: IC50, DAGLα labeling by compound 58 and HT-01
  IC50: 0.5 to 1.2 nM
DAGLβ; mouse brain proteome, probes 1 μM, 30 min, read-out: IC50, DAGLβ labeling by compound 58 and HT-01
  IC50: 2.3 to 4.8 nM

## C#CCO[C@@H]1CC[C@H](Cc2ccccc2)N(C(=O)n2ncc(C(O)(c3ccc(F)cc3)c3ccc(F)cc3)n2)C1 [Compound 14, ((2R,5R)-2-Benzyl-5-(prop-2-ynyloxy)piperidin-1-yl)(4-(bis(4-fluorophenyl)(hydroxy)methyl)-2H-1,2,3-triazol-2-yl)methanone]
[1]
  time after injection at which depletion of brain 2-AG was observed: ≤ 2 h
  brain 2-AG levels: reduced
  brain AA: reductions
  brain AEA: reductions
  brain C18:1/C20:4 DAG: elevations
  brain PGD2: reductions
  brain PGE2: reductions
  brain SAG: elevations
Recombinant human DAGLα
  IC50: 6 nM
DAGLα (hDAGLα-FLAG)
  IC50: ≤ 400 nM
DAGLβ (hDAGLβ-FLAG)
  IC50: ≤ 400 nM
DAGLα
  IC50: 0.5 to 1.2 nM
DAGLβ
  IC50: 2.3 to 4.8 nM
